ChEMBL document CHEMBL5550189, “Discovery of GS-7682, a Novel 4'-Cyano-Modified C-Nucleoside Prodrug with Broad Activity against Pneumo- and Picornaviruses and Efficacy in RSV-Infected African Green Monkeys” (J Med Chem, 2024)
The source made the active and inactive calls. The calls are words filed in the database; no cut-off is given here.

Legend:
[1] = test system: Respiratory syncytial virus; assay: Antiviral activity against RSV A2 infected in D-HBE-COPD cells assessed as inhibition of intracellular virus replication; assay type: functional, organism-based; details: human respiratory syncytial virus
[2] = Half life in African green monkey at lung-deposited dose of 5.9 mg/kg, IT measured after 24 hrs by LC-MS/MS analysis; assay type: ADME, organism-based; details: chlorocebus aethiops, in vivo
[3] = Prodrug conversion in Normal human bronchial epithelial cells assessed as ((2R,3S,4R,5S)-5-(4-aminopyrrolo[2,1-f][1,2,4]triazin-7-yl)-2-cyano-3,4-dihydroxytetrahydrofuran-2-yl)methyl tetrahydrogen triphosphate formation measured per million cells at 1 uM measured after 48 hrs by LC-MS/MS analysis; assay type: ADME, cell-based; details: epithelial cell
[4] = Prodrug conversion in D-HBE-COPD cells assessed as ((2R,3S,4R,5S)-5-(4-aminopyrrolo[2,1-f][1,2,4]triazin-7-yl)-2-cyano-3,4-dihydroxytetrahydrofuran-2-yl)methyl tetrahydrogen triphosphate formation measured per million cells at 1 uM measured after 48 hrs by LC-MS/MS analysis; assay type: ADME, cell-based; details: human
[5] = test system: Respiratory syncytial virus; assay: (§1) Antiviral activity against RSV A2 infected in human airway epithelium transwell culture assessed as decrease in viral RNA level by measuring log10 reduction in median viral load at 0.05 uM pretreated at apical side for 3 hrs followed by compound washout and subsequent viral infection at apical side for 3 hrs followed by removal of virus and recurrent addition of compound on day 1 and 2 at basolateral side measured on day 3 by RT-qPCR analysis; assay type: functional; details: time 75 hrs
[6] = Selectivity index, ratio of CC50 for human HEp-2 cells to EC50 for RSV A2 infected in human HEp-2 cells; assay type: toxicity, cell-based; details: read-out: Ratio CC50/EC50
[7] = test system: Respiratory syncytial virus; assay: as §1, with “0.01” for “0.05”; assay type: functional; details: time 75 hrs
[8] = Drug metabolism in African green monkey assessed as AUC (0 to 24 hrs) of (2R,3S,4R,5S)-5-(4-aminopyrrolo[2,1-f][1,2,4]triazin-7-yl)-3,4-dihydroxy-2-(hydroxymethyl)tetrahydrofuran-2-carbonitrile metabolite at lung-deposited dose of 5.9 mg/kg, IT measured after 24 hrs by LC-MS/MS analysis; assay type: ADME, organism-based; details: chlorocebus aethiops, in vivo, other
[9] = test system: Respiratory syncytial virus; assay: Antiviral activity against RSV infected in African green monkey assessed as reduction in viral load in nasal swabs at lung-deposited dose of 1.6 to 7.6 mg/kg, IT qd for 6 days; assay type: functional, organism-based; details: dose 1.6-7.6 mg/kg, time 6.0 day
[10] = Drug metabolism in Cynomolgous monkey assessed as half life of (2R,3S,4R,5S)-5-(4-aminopyrrolo[2,1-f][1,2,4]triazin-7-yl)-3,4-dihydroxy-2-(hydroxymethyl)tetrahydrofuran-2-carbonitrile metabolite at lung-deposited dose of 4 mg/kg, IT measured after 24 hrs by LC-MS/MS analysis; assay type: ADME, organism-based, Macaca fascicularis; details: cynomolgus monkey, in vivo, other
[11] = Cytotoxicity against human MT4 cells incubated for 5 days by Cell Titer Glo assay; assay type: toxicity, cell-based; details: time 5 day
[12] = test system: Respiratory syncytial virus; assay: as §1, with “0.25” for “0.05”; assay type: functional; details: time 75 hrs
[13] = test system: Respiratory syncytial virus; assay: Antiviral activity against Fluc-fused RSV A2 infected in D-HBE-COPD cells incubated for 3 days by ONE Glo luciferase assay; assay type: functional, organism-based; details: human respiratory syncytial virus, 72 h
[14] = AUC (0 to 24 hrs) in African green monkey at lung-deposited dose of 5.9 mg/kg, IT measured after 24 hrs by LC-MS/MS analysis; assay type: ADME, organism-based; details: chlorocebus aethiops, in vivo
[15] = test system: Respiratory syncytial virus; assay: as §1, with “0” for “1 and 2”, “apical” for “basolateral”; assay type: functional; details: time 75 hrs
[16] = Cytotoxicity against human RD cells by MTS assay; assay type: toxicity, cell-based
[17] = Cytotoxicity against human A549 cells expressing hACE2 incubated for 28 hrs by Cell Titer Glo assay; assay type: toxicity, cell-based
Human metapneumovirus = assay: Anti-viral activity against hMPV CAN99-81 (A1 genotype) infected in rhesus monkey LLC-MK2 cells incubated for 90 mins; assay type: functional, organism-based; details: LLC-MK2, 1.5 h
[18] = test system: Respiratory syncytial virus; assay: Antiviral activity against RSV infected in African green monkey assessed as reduction in viral RNA copies in BAL at lung-deposited dose of 1.6 to 7.6 mg/kg, IT qd for 6 days measured for 3 to 11 days by RT-qPCR analysis; assay type: functional, organism-based; details: dose 1.6-7.6 mg/kg, time 11.0 day
[19] = Cmax in Cynomolgous monkey at 5 mg/kg, iv measured after 30 mins by LC-MS/MS analysis; assay type: ADME, organism-based, Macaca fascicularis; details: cynomolgus monkey, in vivo
[20] = test system: Respiratory syncytial virus; assay: as §1, with “0.25” for “0.05”, “0” for “1 and 2”, “apical” for “basolateral”; assay type: functional; details: time 75 hrs
[21] = Cytotoxicity against human Hep-2 cells incubated for 4 to 5 days by Cell Titer Glo assay; assay type: toxicity, cell-based; details: time 4-5 day
[22] = Drug metabolism in African green monkey assessed as half life of (2R,3S,4R,5S)-5-(4-aminopyrrolo[2,1-f][1,2,4]triazin-7-yl)-3,4-dihydroxy-2-(hydroxymethyl)tetrahydrofuran-2-carbonitrile metabolite at lung-deposited dose of 5.9 mg/kg, IT measured after 24 hrs by LC-MS/MS analysis; assay type: ADME, organism-based; details: chlorocebus aethiops, in vivo, other
[23] = test system: Respiratory syncytial virus; assay: Antiviral activity against RSV infected in African green monkey assessed as reduction in viral load in BAL at lung-deposited dose of 1.6 to 7.6 mg/kg, IT qd for 6 days measured on day 7 to 9 by RT-qPCR analysis; assay type: functional, organism-based; details: dose 1.6-7.6 mg/kg, time 9.0 day
[24] = Cytotoxicity against rhesus monkey LLC-MK2 cells incubated for 5 days by MTS assay; assay type: toxicity, cell-based, Macaca mulatta; details: time 5 day
[25] = Half life in Cynomolgous monkey at lung-deposited dose of 4 mg/kg, IT measured after 24 hrs by LC-MS/MS analysis; assay type: ADME, organism-based, Macaca fascicularis; details: cynomolgus monkey, in vivo
[26] = Cmax in African green monkey at lung-deposited dose of 5.9 mg/kg, IT measured after 24 hrs by LC-MS/MS analysis; assay type: ADME, organism-based; details: chlorocebus aethiops, in vivo
[27] = test system: Respiratory syncytial virus; assay: Antiviral activity against RSV A2 infected in D-HBE-As cells assessed as inhibition of intracellular virus replication; assay type: functional, organism-based; details: human respiratory syncytial virus
[28] = test system: Respiratory syncytial virus; assay: Antiviral activity against Fluc-fused RSV A2 infected in D-HBE-As cells incubated for 3 days by ONE Glo luciferase assay; assay type: functional, organism-based; details: human respiratory syncytial virus, 72 h
Enterovirus A71 = assay: Anti-viral activity against EV-71 (H) infected in human RD cells by MTS assay; assay type: functional, organism-based; details: Enterovirus A
SARS-CoV-2 = assay: Anti-viral activity against SARS-CoV-2 infected in human A549 cells expressing hACE2 by firefly reporter assay; assay type: functional, organism-based; details: Severe acute respiratory syndrome coronavirus 2, A549
[29] = AUC (0 to 24 hrs) in Cynomolgous monkey at lung-deposited dose of 4 mg/kg, IT measured after 24 hrs by LC-MS/MS analysis; assay type: ADME, organism-based, Macaca fascicularis; details: cynomolgus monkey, in vivo

SMILES: COC(=O)[C@H](C)N[P@](=O)(OC[C@@]1(C#N)O[C@@H](c2ccc3c(N)ncnn23)[C@H](OC(=O)C(C)C)[C@@H]1OC(=O)C(C)C)Oc1ccccc1
- IC50 [1]: < 85 nM
- half-life [2]: 7.01 h
- Drug metabolism [3]: 88.8 pM
- Drug metabolism [4]: 85 pM
- Activity [5]: 0.5 log10/ml
- selectivity ratio [6]: 500
- Activity [7]: 0.2 log10/ml
- AUC [8]: 3.39 µM·h
- Activity [9]: inactive
- t1/2 [10]: 38.8 h
- CC50 at 120 h [11]: 3240 nM
- Activity [12]: 2.5 log10/ml
- EC50 [13]: < 7 nM
- AUC(0-t) at 24 h [14]: 1.74 µM·h
- Activity [15]: 0.2 log10/ml
- CC50 [16]: > 2000 nM
- CC50 at 28 h [17]: 21100 nM
- EC50 (Human metapneumovirus): 210 nM
- Activity [18]: Active
- Cmax [19]: 1990 nM
- Activity [20]: 1.9 log10/ml
- CC50 [21]: 22700 nM
- t1/2 [22]: 14.7 h
- Activity [23]: inactive
- CC50 at 120 h [24]: > 2000 nM
- half-life [25]: 13 h
- Cmax [26]: 610 nM
- IC50 [27]: 97 nM
- EC50 [28]: 6 nM
- EC50 (Enterovirus A71): 83 nM
- EC50 (SARS-CoV-2): 4750 nM
- AUC(0-t) at 24 h [29]: 1.86 µM·h
